We go through eleven compounds from PubChem BioAssay (NCI).

Assay in all cases: DTP human tumour cell line panel, 48 h
For assay [1], the system named is NCI-H23 lung.
Assay [2] deals with KM12 colon.
For assay [3], the system named is SF-295 CNS.
The test system of assay [4] is OVCAR-3 ovarian.
For assay [5], the system named is LOX IMVI melanoma.
Assay [6] concerns SW-620 colon.
In assay [7] the test system is OVCAR-8 ovarian.
For assay [8], the system named is DU-145 prostate.
The test system of assay [9] is HT29 colon.
For assay [10], the system named is HOP-92 NSCLC.

Molecules are shown by their SMILES.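 How tested: cells in 96-well plates exposed to compound for 48 hours at five concentrations. Here, GI50 denotes the concentration required for 50% inhibition of growth. TGI denotes the concentration required for complete inhibition of growth.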 A value given as a limit tells only on which side of the number the result lay.

What is called TGI is the concentration giving total growth inhibition. A higher TGI goes with lower sensitivity of the cells. For `NCCNC(=S)S`, the TGI in assay [1], in [2], in assay [3], in assay [4], in assay [5] and in assay [6] was above 100 µM throughout. Moreover, the TGI in assay [7], in assay [8] and in [9] was above 100 µM throughout.
The term GI50 denotes the concentration at which growth is held to half of that of the control. Consider `COc1ccc(-c2ccc(C3CC(c4ccc(Cl)cc4)=NN3)o2)c([N+](=O)[O-])c1` (configuration not stated), for which the GI50 was above 100 µM in assay [1]; 43.5 µM in assay [3]; above 100 µM in [10]; above 100 µM in [4]; above 100 µM in assay [5]; above 100 µM in assay [6]. Moreover, the GI50 in assay [7], in assay [8] and in assay [9] was above 100 µM each time. Moreover, the TGI in assay [1], in [3], in assay [10], in assay [4], in assay [5] and in assay [6] was above 100 µM throughout. The TGI in assay [7], in [8] and in assay [9] was above 100 µM in each case.
`C[C@@H]1C=C2C(=O)O[C@@H]3CC[C@H](C1)[C@]23O`: the GI50 in [1] was 4.33 µM; in assay [2], 21.8 µM; in [3], 13.6 µM; in assay [4] it was 3.44 µM; in [5] it was 3.33 µM; in assay [7], 4.04 µM. The GI50 was 2.14 µM in assay [8] and 3.46 µM in assay [9]. Moreover, the TGI was 23 µM in assay [1]; 61.6 µM in assay [2]; 35.3 µM in assay [3]; 11.1 µM in assay [4]; 13.3 µM in [5]; 12.8 µM in assay [6]. Also, the TGI came to 28.6 µM in [7], 5.78 µM in assay [8] and 13.4 µM in assay [9].
For `O=C1CCC2(CC1)SCCCS2`, the TGI in assay [1], in [2], in assay [3], in [10], in assay [4] and in [5] was above 100 µM throughout. Besides, the TGI in assay [6], in [7] and in [9] was above 100 µM throughout.
On to `N#Cc1cc([N+](=O)[O-])ccc1NC(=O)C(=O)C(C(=O)/C=C/c1ccccc1)C1OC(=O)c2ccccc21` (configuration not stated), for which the TGI in assay [1], in [2], in assay [3], in assay [10], in [4] and in assay [5] was above 100 µM each time. In addition, the TGI in assay [6], in assay [7] and in assay [9] was above 100 µM each time.
As for `CC(C)(C)c1ccc(C(O)c2ccc(C(C)(C)C)cc2)cc1`, the TGI came out at 25.5 µM in assay [1]; 29.1 µM in assay [2]; 27 µM in assay [3]; 25.2 µM in [10]; 27.6 µM in assay [4]; 30.8 µM in assay [5]. For the same compound, the TGI amounted to 27.9 µM in assay [6], 29.2 µM in assay [7] and 22.3 µM in assay [9].
With `COc1ccc(C(c2c(O)c3ccccc3n(C)c2=O)c2c(O)c3ccccc3n(C)c2=O)cc1`, the TGI was 66.7 µM in assay [1]; above 100 µM in [2]; above 100 µM in assay [3]; above 100 µM in [10]; above 100 µM in [4]; above 100 µM in [5]. Further, the TGI in assay [6], in assay [7] and in assay [9] was above 100 µM in each case.
For `COc1ccc(C2=NN(C(C)=O)C(c3cn(-c4ccccc4)nc3-c3ccc(Cl)cc3)C2)cc1` (configuration not stated), the GI50 in assay [1] is above 100 µM; in assay [2] it was above 100 µM; in assay [3] it was 13.2 µM; in assay [10], 2.4 µM; in assay [4] it was above 100 µM; in [5] it was above 100 µM. Further, the GI50 in [8] was above 100 µM. For the same compound, the total growth inhibition concentration (TGI) in assay [1], in assay [2], in [3], in [10], in [4] and in assay [5] was above 100 µM in each case. Besides, the TGI in [6] and in [8] was above 100 µM in each case.
On to `N#CCCN(c1ccc(-c2nnc(NC(=O)CNNC(=O)CC(=O)Nc3ccccc3)s2)cc1)S(=O)(=O)c1ccccc1`, for which the TGI in assay [1], in assay [2], in [3], in assay [10], in assay [4] and in assay [5] was above 100 µM each time. Besides, the concentration for total growth inhibition (TGI) in assay [6], in assay [7] and in assay [9] was above 100 µM in each case.
For `COc1cc(C(=O)c2cc3c(cc2C)OCO3)cc(OC)c1OC`, the GI50 in assay [1] is 0.319 µM; in assay [2], 0.07 µM; in assay [3], 0.102 µM; in assay [10], 0.0855 µM; in assay [4], 0.0765 µM; in assay [5] it was 0.551 µM. The figures for the GI50 in [6], in assay [7] and in [9] were 0.0608 µM, 0.317 µM and 0.105 µM, respectively. Also, the TGI was above 100 µM in assay [1]; above 100 µM in assay [2]; above 100 µM in assay [3]; 48.6 µM in [10]; above 100 µM in assay [5]; above 100 µM in [6]. In addition, the TGI in assay [7] and in assay [9] was above 100 µM in each case.
As to `COc1ccc(-c2nc(-c3nc4ccc(OC)cc4[nH]3)cc3c2[nH]c2ccccc23)cc1`, the GI50 in assay [1] is 5.8 µM; in [2] it was 2.57 µM; in assay [4], 3.51 µM; in assay [5], 3.14 µM; in assay [6] it was 4.83 µM; in assay [7], 1.04 µM. For the same compound, the GI50 was 2.06 µM in [8] and 3.46 µM in assay [9]. For the same compound, the TGI in assay [1], in assay [2], in assay [4], in [5], in assay [6] and in assay [7] was above 100 µM each time. For the same compound, the TGI in assay [8] and in assay [9] was above 100 µM in each case.
